Here are results for eight compounds from ChEMBL document CHEMBL1144950, “Structure--activity relationships of azasugar-based MMP/ADAM inhibitors” (Bioorg Med Chem Lett, 2003).

For orientation: Ki means the equilibrium dissociation constant of an inhibitor or competing ligand from its target.

In experiment [1] the target is Stromelysin-1 (Homo sapiens, UniProt P08254). In words: Inhibition of recombinant human matrix metalloprotease-3.
The target of experiment [2] is T1, Interstitial collagenase (Homo sapiens, UniProt P03956).
T1 sequence (P03956 whole entry): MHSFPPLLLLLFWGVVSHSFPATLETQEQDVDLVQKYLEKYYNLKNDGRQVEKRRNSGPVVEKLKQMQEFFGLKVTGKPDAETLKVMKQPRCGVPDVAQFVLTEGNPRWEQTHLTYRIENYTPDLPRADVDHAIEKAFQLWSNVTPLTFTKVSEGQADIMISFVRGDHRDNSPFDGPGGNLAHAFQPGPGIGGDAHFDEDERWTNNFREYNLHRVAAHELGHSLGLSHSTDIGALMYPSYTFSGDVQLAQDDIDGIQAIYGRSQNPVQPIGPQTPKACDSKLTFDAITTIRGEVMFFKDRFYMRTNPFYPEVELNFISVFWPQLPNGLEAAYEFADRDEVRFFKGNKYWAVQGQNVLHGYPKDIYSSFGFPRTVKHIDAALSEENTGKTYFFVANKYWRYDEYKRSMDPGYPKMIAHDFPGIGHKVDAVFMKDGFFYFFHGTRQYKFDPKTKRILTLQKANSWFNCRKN
In words: Inhibition of recombinant human matrix metalloprotease-1.

Experiment [3] concerns the target T2, Disintegrin and metalloproteinase domain-containing protein 17 (Homo sapiens, UniProt P78536). In words: Inhibition of recombinant human TNF-alpha converting enzyme (TACE).
Experiment [4] has as its target Matrix metalloproteinase-9 (Homo sapiens, UniProt P14780). In words: Inhibition of recombinant human matrix metalloprotease-9.
For experiment [5], the target named is T2, Disintegrin and metalloproteinase domain-containing protein 17. In words: Inhibition of recombinant human TNF-alpha converting enzyme.

Bounds are passed on as bounds.

Chain of Matrix metalloproteinase-9 (P14780 whole entry, the tested form may be a part): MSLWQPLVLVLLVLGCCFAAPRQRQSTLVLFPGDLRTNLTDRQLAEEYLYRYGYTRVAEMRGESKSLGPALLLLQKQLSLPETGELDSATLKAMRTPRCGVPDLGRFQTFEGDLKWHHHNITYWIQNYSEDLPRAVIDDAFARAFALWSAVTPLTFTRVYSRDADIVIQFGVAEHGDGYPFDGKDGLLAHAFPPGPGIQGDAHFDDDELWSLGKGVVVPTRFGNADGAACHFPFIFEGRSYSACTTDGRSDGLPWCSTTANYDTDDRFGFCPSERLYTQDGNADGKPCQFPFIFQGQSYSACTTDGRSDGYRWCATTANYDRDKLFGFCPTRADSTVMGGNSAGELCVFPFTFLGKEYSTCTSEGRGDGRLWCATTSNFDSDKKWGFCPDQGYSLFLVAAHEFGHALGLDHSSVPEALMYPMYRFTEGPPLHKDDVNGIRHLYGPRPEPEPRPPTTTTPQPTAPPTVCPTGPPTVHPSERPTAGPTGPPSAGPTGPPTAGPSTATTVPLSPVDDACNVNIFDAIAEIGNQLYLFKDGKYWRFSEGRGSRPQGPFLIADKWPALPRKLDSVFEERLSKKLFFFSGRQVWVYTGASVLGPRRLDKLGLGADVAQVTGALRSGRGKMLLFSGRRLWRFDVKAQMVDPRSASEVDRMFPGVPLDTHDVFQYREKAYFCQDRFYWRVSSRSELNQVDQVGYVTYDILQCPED
T2 sequence (P78536 whole entry, the tested form may be a part): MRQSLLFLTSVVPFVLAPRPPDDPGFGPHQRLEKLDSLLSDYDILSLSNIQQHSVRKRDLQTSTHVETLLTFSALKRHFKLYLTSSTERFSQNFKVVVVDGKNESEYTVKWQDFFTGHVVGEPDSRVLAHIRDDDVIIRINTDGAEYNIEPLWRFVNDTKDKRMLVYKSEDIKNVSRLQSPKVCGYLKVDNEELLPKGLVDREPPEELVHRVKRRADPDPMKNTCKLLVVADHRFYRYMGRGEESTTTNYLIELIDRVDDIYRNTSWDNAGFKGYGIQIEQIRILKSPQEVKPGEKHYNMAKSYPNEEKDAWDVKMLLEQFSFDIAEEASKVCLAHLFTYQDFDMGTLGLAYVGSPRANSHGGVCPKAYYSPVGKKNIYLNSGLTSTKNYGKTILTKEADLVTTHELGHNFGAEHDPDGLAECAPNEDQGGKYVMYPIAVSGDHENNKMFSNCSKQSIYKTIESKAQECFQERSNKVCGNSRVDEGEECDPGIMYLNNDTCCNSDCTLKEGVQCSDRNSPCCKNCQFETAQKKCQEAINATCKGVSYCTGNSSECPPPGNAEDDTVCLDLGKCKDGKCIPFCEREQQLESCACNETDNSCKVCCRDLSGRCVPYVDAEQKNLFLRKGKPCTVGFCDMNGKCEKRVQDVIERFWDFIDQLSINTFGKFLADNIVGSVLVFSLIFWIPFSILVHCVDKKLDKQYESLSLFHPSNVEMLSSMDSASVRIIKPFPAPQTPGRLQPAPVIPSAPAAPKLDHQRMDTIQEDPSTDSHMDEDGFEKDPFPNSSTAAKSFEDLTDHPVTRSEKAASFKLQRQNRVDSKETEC
Chain of Stromelysin-1 (P08254 whole entry): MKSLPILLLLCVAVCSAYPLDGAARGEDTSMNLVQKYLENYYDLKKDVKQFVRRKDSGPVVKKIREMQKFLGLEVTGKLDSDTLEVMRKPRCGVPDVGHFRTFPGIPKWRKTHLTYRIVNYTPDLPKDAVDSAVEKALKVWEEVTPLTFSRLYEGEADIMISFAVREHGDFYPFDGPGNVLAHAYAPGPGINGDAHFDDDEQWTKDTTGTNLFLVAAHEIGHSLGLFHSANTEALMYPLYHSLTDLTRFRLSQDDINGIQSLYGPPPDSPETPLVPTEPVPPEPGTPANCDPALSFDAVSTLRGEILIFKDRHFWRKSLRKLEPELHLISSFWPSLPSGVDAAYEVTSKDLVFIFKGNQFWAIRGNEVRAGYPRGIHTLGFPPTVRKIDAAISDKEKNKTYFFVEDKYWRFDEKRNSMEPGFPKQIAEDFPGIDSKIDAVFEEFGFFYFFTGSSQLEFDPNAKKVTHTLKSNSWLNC

Take `O=C(NO)[C@H]1[C@@H](O)[C@H](O)[C@@H](O)CN1S(=O)(=O)c1ccc(OC2CCCCC2)cc1`: the Ki in experiment [1] stood at 1.8 nM; in experiment [2], 100 nM; in experiment [3], 67 nM; in experiment [4], 0.93 nM.

`CCOCCOc1ccc(S(=O)(=O)N2C[C@H](O)[C@@H](O)[C@H](O)[C@@H]2C(=O)NO)cc1`: the Ki in experiment [1] is 42 nM; in experiment [2], more than 850 nM; in experiment [3], 8.7 nM; in experiment [4], 64 nM.

Regarding `O=C(NO)[C@H]1[C@@H](O)[C@H](O)[C@@H](O)CN1S(=O)(=O)c1ccc(Oc2ccccc2)cc1`, the Ki in experiment [5] was determined as 2.3 nM; in experiment [1] it was 0.51 nM; in experiment [2] it was 8 nM.

In the case of `COc1ccc(S(=O)(=O)N2C[C@H](O)[C@@H](O)[C@H](O)[C@@H]2C(=O)NO)cc1`, the figures for the Ki in experiment [2] and in experiment [3] were 25 nM and 12 nM, respectively.

For the compound `COc1ccc(S(=O)(=O)N2C[C@@H](O)[C@H](O)[C@@H](O)[C@@H]2C(=O)NO)cc1`, the Ki in experiment [2] turned out to be 450 nM; in experiment [3] it was 340 nM.

For the compound `COc1ccc(S(=O)(=O)N2C[C@H](O)[C@@H](O)[C@@H](O)[C@@H]2C(=O)NO)cc1`, the Ki in experiment [3] is 71 nM.

Consider `O=C(NO)[C@H]1[C@@H](O)[C@H](O)[C@@H](O)CN1S(=O)(=O)c1ccc(OCc2ccccc2)cc1`, for which the Ki came to 2.6 nM in experiment [1], 850 nM in experiment [2], 1.6 nM in experiment [3] and 6.1 nM in experiment [4].

With `COc1ccc(S(=O)(=O)N2C[C@H](O)[C@H](O)[C@@H](O)[C@@H]2C(=O)NO)cc1`, the results for the Ki in experiment [2] and in experiment [3] were more than 850 nM and 510 nM, respectively.
